Measurements taken from patent US9873883B2, “Glyphosate resistant plants and associated methods” (Dow AgroSciences LLC, priority 2012, dated 2018).
pIC50: −log10 of the molar value.

Experiments:
[1] = system: untransformed B104 maize line; test: Growth inhibition dosage response in maize callus culture; format: cell-based, Zea mays
T0 dgt-14 corn plants = test: Postemergence herbicide tolerance in dgt-14 transformed T0 corn; format: in vivo, Zea mays; conditions: Durango DMA
Experimental: T0 events are allowed to acclimate in the greenhouse and are grown until two to four new, normal looking leaves emerge from the whorl (i.e., plants that transition from tissue culture to greenhouse growing conditions). Plants are grown at 27° C. under 16 hour light:8 hour dark conditions in the greenhouse. The plants are then treated with commercial formulations of Durango DMA™ (containing the herbicide glyphosate) with the addition of 2% w/v ammonium-sulfate. Herbicide applications are made with a track sprayer at a spray volume of 187 L/ha, 50-cm spray height. T0 plants are sprayed with a range of glyphosate from 280-4480 g ae/ha glyphosate, which is capable of significant injury to untransformed corn lines. A lethal dose is defined as the rate that causes >95% injury to the B104 inbred.

[2] = target: Mariprofundus ferrooxydans EPSP synthase DGT-14 variant DGT-14 v6 (G101A), SEQ ID NO:1 (Mariprofundus ferrooxydans, UniProt Q0EYT4, G101A); test: In vitro kinetic assay (inorganic phosphate production, malachite green); format: biochemical; conditions: IC50 (glyphosate), values greater than 50 are estimates
[3] = target: bacterial EPSP synthase DGT-29 (GENBANK YP_322772.1) variant DGT-29 v6 (G→A at residue 96), SEQ ID NO:11 (Trichormus variabilis, UniProt Q3MAV9, G96A); test: as above; conditions: IC50 (glyphosate), values greater than 50 are estimates
Description: (§1) The novel DGT-14, DGT-12, DGT-18, DGT-29 and DGT-30 enzymes were obtained and the glycine to alanine mutation was introduced into the EPSP synthase enzymes at a location analogous to the G96A location described for the E. coli version of the EPSP synthase enzyme. The DGT-14 protein sequence was modified by introducing an alanine to replace the endogenous glycine of GENBANK ACC NO: ZP_01452683 at amino acid residue 101, thereby resulting in SEQ ID NO:1. The DGT-12 protein sequence was modified by introducing an alanine to replace the endogenous glycine of GENBANK ACC NO: ZP_01622155.1 at amino acid residue 111, thereby resulting in SEQ ID NO:7. The DGT-18 protein sequence was modified by introducing an alanine to replace the endogenous glycine of GENBANK ACC NO: NP_928909.1 at amino acid residue 96, thereby resulting in SEQ ID NO:9. The DGT-29 protein sequence was modified by introducing an alanine to replace the endogenous glycine of GENBANK ACC NO: YP_322772.1 at amino acid residue 96, thereby resulting in SEQ ID NO:11. The DGT-30 protein sequence was modified by introducing an alanine to replace the endogenous glycine of GENBANK ACC NO: ZP_02156189.1 at amino acid residue 96, thereby resulting in SEQ ID NO:13.
(§2) The synthesized genes were cloned into the pET28 expression vector.
(§3) Recombinant DGT proteins were overexpressed in Rosetta2™ (DE3) cells (Novagen, Madison, Wis.) from the constructs described above. A single colony was used to inoculate 50 mL starter cultures of LB containing chloramphenicol (25 μg/mL) and kanamycin (50 μg/mL) which were cultivated overnight at 37° C. The overnight cultures were used to inoculate 1 L of LB containing chloramphenicol (25 μg/mL) and kanamycin (50 μg/mL). The cultures were grown at 37° C. to an O.D.600=0.6 then placed in an ice water bath for 10 minutes. Expression of the target proteins was achieved by addition of IPTG to a final concentration of 500 μM. Induction was allowed to proceed overnight at 20° C. followed by harvesting via centrifugation at 8,000 rpm for 20 minutes. The cell pellets were stored at −80° C. until required for purification. All purification steps were carried out at 4° C.

[4] = target: bacterial EPSP synthase DGT-30 (GENBANK ZP_02156189.1) variant DGT-30 v6 (G→A at residue 96), SEQ ID NO:13 (Shewanella benthica, UniProt A9CYU9, G96A); test: as above; conditions: IC50 (glyphosate)
Description: as §1, §2, §3

[5] = target: bacterial EPSP synthase DGT-18 (GENBANK NP_928909.1) variant DGT-18 v6 (G→A at residue 96), SEQ ID NO:9 (Photorhabdus laumondii, UniProt Q7N6D5, G96A); test: as above; conditions: IC50 (glyphosate)
Description: as §1, §2, §3

[6] = system: T4 Arabidopsis plants containing dgt-14 spiked into wildtype; test: dgt-14 as a selectable marker with glyphosate selection; format: in vivo, Arabidopsis thaliana; conditions: applied 7 and 11 DAP, scored 17 DAP
Experimental: The use of dgt-14 as a selectable marker for glyphosate selection agent is tested with the Arabidopsis transformed plants described above. Approximately 50 T4 generation Arabidopsis seed (homozygous for dgt-14) are spiked into approximately 5,000 wildtype (sensitive to glyphosate) seed. The seeds are germinated and plantlets are sprayed with a selecting dose of glyphosate. Several treatments of glyphosate are compared; each tray of plants receives either one or two application timings of glyphosate in one of the following treatment schemes: 7 DAP (days after planting), 11 DAP, or 7 followed by 11 DAP. Since all plants also contain a glufosinate resistance gene in the same transformation vector, dgt-14 containing plants selected with glyphosate can be directly compared to DSM-2 or pat containing control plants selected with glufosinate.
Glyphosate treatments are applied with a DeVilbiss spray tip as previously described. Transgenic plants containing dgt-14 are identified as “resistant” or “sensitive” 17 DAP. […] Sensitive and resistant plants are counted and the number of glyphosate tolerant plants is found to correlate with the original number of transgenic seed containing the dgt-14 transgene which are planted.

With `O=C(O)CNCP(=O)(O)O` [glyphosate, N-(phosphonomethyl)glycine] as the compound, how does the “glyphosate concentrations sufficient to inhibit cell growth” value [1] read?
Its value is at least 0.25 mM.

What about the “tolerance to glyphosate achieved at rates up to” value (T0 dgt-14 corn plants) of the same compound?
Its value is “up to 4480 g ae/ha”.

And the pIC50 ([2]; at 60 μM PEP)?
The pIC50 was under 1.10.

What about the pIC50 ([2]; at 1 mM PEP) of the same compound?
Its pIC50 is under 1.10.

And the pIC50 ([3]; *determined at 100 μM PEP)?
The pIC50 was under 1.10.

And the pIC50 ([3]; at 1 mM PEP)?
The pIC50 was under 1.10.

And the pIC50 ([4]; at 60 μM PEP)?
The pIC50 was 2.10.

What about the pIC50 ([4]; at 1 mM PEP) of the same compound?
Its pIC50 is 1.81.

What about the pIC50 ([5]; at 60 μM PEP) of the same compound?
The pIC50 was 2.03.

And the pIC50 ([5]; at 1 mM PEP)?
The pIC50 was 1.48.

And the “effective selection for transgenic plants” value [6]?
Its value is 26.25-1680 g ae/ha.
